Measurements reported in ChEMBL document CHEMBL1133436 (Bioorg Med Chem Lett, 2000).

Key:
Homo sapiens = species on record: Homo sapiens; test: Selectivity for alpha-2a to that of alpha2b determined by their binding affinity ratios
[1] = target: T1, Alpha-2B adrenergic receptor (Homo sapiens, UniProt P18089); test: biochemical; format: cell-based, CHO
T1 sequence (P18089 whole entry): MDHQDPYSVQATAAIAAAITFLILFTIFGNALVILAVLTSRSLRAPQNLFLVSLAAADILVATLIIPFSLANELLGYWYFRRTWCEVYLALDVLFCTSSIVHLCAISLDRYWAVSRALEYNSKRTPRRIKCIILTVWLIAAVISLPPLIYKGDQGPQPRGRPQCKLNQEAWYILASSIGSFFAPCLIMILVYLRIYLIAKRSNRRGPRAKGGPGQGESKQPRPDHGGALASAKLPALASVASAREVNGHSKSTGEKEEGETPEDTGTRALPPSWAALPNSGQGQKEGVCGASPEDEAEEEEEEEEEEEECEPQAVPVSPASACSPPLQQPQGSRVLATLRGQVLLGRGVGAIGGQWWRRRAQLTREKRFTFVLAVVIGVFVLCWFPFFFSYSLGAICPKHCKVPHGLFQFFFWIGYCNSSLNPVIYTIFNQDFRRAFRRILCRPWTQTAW

[2] = target: T2, Alpha-2A adrenergic receptor (Homo sapiens, UniProt P08913); test: Binding affinity against human Alpha-2A adrenergic receptor expressed stably in CHO cells using [3H]rauwolscine as radioligand; format: cell-based
T2 sequence (P08913 whole entry): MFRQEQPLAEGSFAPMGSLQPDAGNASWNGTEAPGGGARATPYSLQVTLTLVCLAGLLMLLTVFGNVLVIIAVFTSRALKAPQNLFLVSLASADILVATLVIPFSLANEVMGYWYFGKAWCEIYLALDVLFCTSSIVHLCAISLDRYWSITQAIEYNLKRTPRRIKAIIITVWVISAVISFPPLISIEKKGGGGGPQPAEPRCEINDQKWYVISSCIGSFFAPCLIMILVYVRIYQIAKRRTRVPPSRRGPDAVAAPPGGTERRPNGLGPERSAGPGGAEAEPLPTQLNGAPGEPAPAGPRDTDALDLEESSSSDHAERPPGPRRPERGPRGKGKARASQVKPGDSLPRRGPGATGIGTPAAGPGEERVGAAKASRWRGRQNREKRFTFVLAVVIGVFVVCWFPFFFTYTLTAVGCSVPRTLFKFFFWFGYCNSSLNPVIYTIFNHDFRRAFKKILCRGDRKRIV

Selectivity (Homo sapiens)	Ki [1] [nM]	Ki [2] [nM]	SMILES
60.5			O=C(NCCCCCCCCNC(=O)[C@@H]1[C@H]2C[C@H]3c4[nH]c5ccccc5c4CCN3C[C@@H]2CC[C@@H]1O)[C@@H]1[C@H]2C[C@H]3c4[nH]c5ccccc5c4CCN3C[C@@H]2CC[C@@H]1O
35.8	44.7	1.25	O=C(NCCCCCCCCCNC(=O)[C@@H]1[C@H]2C[C@H]3c4[nH]c5ccccc5c4CCN3C[C@@H]2CC[C@@H]1O)[C@@H]1[C@H]2C[C@H]3c4[nH]c5ccccc5c4CCN3C[C@@H]2CC[C@@H]1O
15.7	18.5	1.18	O=C(NCCCCCCCCCCCCNC(=O)[C@@H]1[C@H]2C[C@H]3c4[nH]c5ccccc5c4CCN3C[C@@H]2CC[C@@H]1O)[C@@H]1[C@H]2C[C@H]3c4[nH]c5ccccc5c4CCN3C[C@@H]2CC[C@@H]1O
47.7			O=C(NCCCCCCCCCCNC(=O)[C@@H]1[C@H]2C[C@H]3c4[nH]c5ccccc5c4CCN3C[C@@H]2CC[C@@H]1O)[C@@H]1[C@H]2C[C@H]3c4[nH]c5ccccc5c4CCN3C[C@@H]2CC[C@@H]1O
